{
  "source": "paper PMC8099913",
  "about": "“FoldAffinity: binding affinities from nDSF experiments” (Scientific Reports, 2021)",
  "key": {"[1]": {"target": "T1, Pcs60 (Saccharomyces cerevisiae, UniProt P38137)", "T1 sequence (P38137 whole entry)": "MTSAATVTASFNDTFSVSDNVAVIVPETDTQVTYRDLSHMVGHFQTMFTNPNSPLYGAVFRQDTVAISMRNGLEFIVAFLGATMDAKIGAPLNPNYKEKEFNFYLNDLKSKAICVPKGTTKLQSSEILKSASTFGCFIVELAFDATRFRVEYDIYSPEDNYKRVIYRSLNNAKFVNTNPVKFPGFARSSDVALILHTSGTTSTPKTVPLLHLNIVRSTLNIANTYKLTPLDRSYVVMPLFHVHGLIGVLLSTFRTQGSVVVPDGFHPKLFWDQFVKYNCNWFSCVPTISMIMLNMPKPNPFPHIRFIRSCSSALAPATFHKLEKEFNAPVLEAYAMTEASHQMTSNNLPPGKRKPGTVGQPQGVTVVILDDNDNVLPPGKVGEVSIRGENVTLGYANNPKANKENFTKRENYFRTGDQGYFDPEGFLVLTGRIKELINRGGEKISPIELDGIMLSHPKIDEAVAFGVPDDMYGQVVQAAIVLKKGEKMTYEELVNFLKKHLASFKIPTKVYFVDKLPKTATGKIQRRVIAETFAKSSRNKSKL", "assay_type": "binding, S. cerevisiae"}, "[2]": {"target": "T1, Pcs60", "assay_type": "binding, S. cerevisiae", "settings": "read-out: Kd (MST); Tref 21 °C; 1:1 model", "method": "MST curves for Pcs60/ γ S-ATP were acquired with a Nanotemper Monolith NT.LabelFree (Nanotemper) using the MO.Control v1.6 acquisition software and Monolith NT.LabelFree capillaries. The same protein concentration and buffer conditions as for the nDSF experiments were used (9.9 μM). 16 different ligand concentrations (serial dilution with a factor of 2) in the range between 5 mM and 0.15 μM were used for each measurement. For the MST experiment the IR laser power was set to 20% and the UV laser power to 1%. In total, two independent measurements were done plus an additional repeat. The data was exported as xlsx and analyzed and plotted with a self-written Python script. The regions for Fnorm determination were − 1–0 s for “cold” and 19–20 s for “hot”. For each curve Fnorm was calculated as the ratio between the mean values in the “hot” and “cold” region. In the final step, Fnorm was fitted to a 1:1 binding model. The self-written Python scripts for spectral analysis including MST analysis are available online: https://github.com/steniegit/libspec"}, "[3]": {"target": "wild-type Pcs60 (Saccharomyces cerevisiae, UniProt P38137)", "sequence (P38137 whole entry)": "as above", "experiment": "biochemical", "assay_type": "binding, S. cerevisiae", "method": "(§1) The following protocol was used for all nDSF experiments with Pcs60 and the nucleotide ligand γS-ATP. 14 dilutions of the nucleotide ligand (γS-ATP) starting at 5 mM at a constant Pcs60 concentration of 9.9 μM were prepared in buffer (50 mM HEPES pH 7.5, 150 mM NaCl, 0.5 mM TCEP). […] In addition to the ligand dilutions, a pure Pcs60 sample in the same buffer was used. If not stated otherwise, the measurements were run as triplicates (in total 45 temperature curves). The LED laser power for the experiments was between 70 and 80%.\nFigure S29. (A) nDSF binding study for wild-type Pcs60 WT/γS-ATP. The region in the colored box was used for isothermal\nanalysis. […] (C) Isothermal analysis for […]"}, "[4]": {"target": "Pcs60 K523A mutant (Saccharomyces cerevisiae, UniProt P38137, K523A)", "sequence (P38137 whole entry K523A)": "as the sequence (P38137 whole entry) above, with K523A counted along it", "experiment": "biochemical", "assay_type": "binding, S. cerevisiae", "method": "as §1"}, "[5]": {"target": "T1, Pcs60", "experiment": "Differential scanning calorimetry (DSC) of Pcs60 with γS-ATP", "assay_type": "binding, S. cerevisiae", "settings": "Pcs60 180 µM, γS-ATP 192 µM", "method": "2Differential scanning calorimetry of Pcs60\nFigure S24. Differential scanning calorimetry (DSC) of Pcs60 (180 µM) in absence and presence of its ligand γS-ATP (192 µM). Here the raw data is shown before baseline correction. […] The […]\ntemperature of the ﬁrst transition is shifted by ligand binding from 41.5 to 43.4◦C. […]\naffected upon ligand binding. Since the two transitions overlap, it was not possible to extract a reliable value of the heat capacity change upon unfolding ∆Cp.\n(also on this page, place not known: 2 30 40 50 60 70 Temperature / C 11 10 9 8 7 6 DP / mJ/min PCS60 PCS60 + S-ATP Differential)\n(1 picture or pasted object on this page, not shown here)"}, "[6]": {"target": "EG1 (Homo sapiens, UniProt Q9BW91)", "sequence (Q9BW91 59-350)": "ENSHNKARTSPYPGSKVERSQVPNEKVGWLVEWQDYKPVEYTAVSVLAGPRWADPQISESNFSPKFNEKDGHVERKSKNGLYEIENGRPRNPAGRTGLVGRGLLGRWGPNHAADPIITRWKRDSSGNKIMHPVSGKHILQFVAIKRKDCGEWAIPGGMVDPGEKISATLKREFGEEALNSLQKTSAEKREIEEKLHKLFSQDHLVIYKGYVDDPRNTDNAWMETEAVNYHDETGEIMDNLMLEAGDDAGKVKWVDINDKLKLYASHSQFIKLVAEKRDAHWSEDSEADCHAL", "assay_type": "binding", "settings": "ADPR 2 mM to 24 nM"}, "[7]": {"target": "SS1 (Danio rerio, UniProt A0A0R4IMY7)", "sequence (A0A0R4IMY7 32-415)": "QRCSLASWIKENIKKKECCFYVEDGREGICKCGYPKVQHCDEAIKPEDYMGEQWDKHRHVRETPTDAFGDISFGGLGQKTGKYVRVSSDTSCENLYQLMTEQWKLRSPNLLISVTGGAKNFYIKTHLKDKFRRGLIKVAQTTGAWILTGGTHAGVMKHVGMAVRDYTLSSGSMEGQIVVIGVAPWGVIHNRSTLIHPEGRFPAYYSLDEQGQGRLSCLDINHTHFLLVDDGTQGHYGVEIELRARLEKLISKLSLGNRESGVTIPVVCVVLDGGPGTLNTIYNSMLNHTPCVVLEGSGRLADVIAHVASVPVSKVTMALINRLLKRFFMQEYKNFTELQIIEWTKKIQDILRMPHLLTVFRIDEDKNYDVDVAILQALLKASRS", "assay_type": "binding, zebrafish"}},
  "note": "pKd: −log10 of the molar value. Values joined by “and” are separate entries in the source; they are usually repeats but may differ in a detail not shown here. Equal entries are not always repeated. Where two headings read alike, the source gives them in different places.",
  "data": [
    {"compound": "Nc1ncnc2c1ncn2[C@@H]1O[C@H](CO[P@](=O)(O)O[P@](=O)(O)O[P@@](=O)(O)S)[C@@H](O)[C@H]1O", "note": "[γS-ATP]", "values": [
      {"measurement": "pKd", "setting": "[1]; T=36 °C, fitted ∆Cp = 6.7 kcal/molK, read-out: Kd (isothermal analysis, fitted ∆Cp)", "value": 4.83},
      {"measurement": "pKd", "setting": "[1]; T=38 °C, fitted ∆Cp = 6.7 kcal/molK, read-out: Kd (isothermal analysis, fitted ∆Cp)", "value": 4.81},
      {"measurement": "pKd", "setting": "[1]; T=40 °C, fitted ∆Cp = 6.7 kcal/molK, read-out: Kd (isothermal analysis, fitted ∆Cp)", "value": 4.77},
      {"measurement": "pKd", "setting": "[1]; T=42 °C, fitted ∆Cp = 6.7 kcal/molK, read-out: Kd (isothermal analysis, fitted ∆Cp)", "value": 4.66},
      {"measurement": "pKd", "setting": "[1]; T=44 °C, fitted ∆Cp = 6.7 kcal/molK, read-out: Kd (isothermal analysis, fitted ∆Cp)", "value": 4.49},
      {"measurement": "pKd", "setting": "[1]; T=46 °C, fitted ∆Cp = 6.7 kcal/molK, read-out: Kd (isothermal analysis, fitted ∆Cp)", "value": 4.39},
      {"measurement": "pKd", "setting": "[1]; T=48 °C, fitted ∆Cp = 6.7 kcal/molK, read-out: Kd (isothermal analysis, fitted ∆Cp)", "value": 4.56},
      {"measurement": "pKd", "setting": "[1]; Tiso 40 °C, ∆Cp = 0, read-out: Kd (isothermal analysis of nDSF)", "value": 4.74},
      {"measurement": "Tm (melting temperature range of binding study)", "setting": "[1]; first transition", "value": "37–48 °C"},
      {"measurement": "pKd", "setting": "[1]; heating rate 1 °C/min, ∆Cp default 0 kcal/mol, Tsel 40 °C, read-out: Kd,Tsel", "value": 4.74},
      {"measurement": "pKd", "setting": "[1]; heating rate 1 °C/min, ∆Cp fitted 6.7 kcal/mol, Tsel 38 °C, read-out: Kd,Tsel", "value": 4.77},
      {"measurement": "pKd", "setting": "[1]; heating rate 3 °C/min, ∆Cp default 0 kcal/mol, Tsel 39 °C, read-out: Kd,Tsel", "value": 4.80},
      {"measurement": "pKd", "setting": "[1]; heating rate 3 °C/min, ∆Cp fitted 6.7 kcal/mol, Tsel 39 °C, read-out: Kd,Tsel", "value": 4.72},
      {"measurement": "pKd", "setting": "[1]; heating rate 5 °C/min, ∆Cp default 0 kcal/mol, Tsel 39 °C, read-out: Kd,Tsel", "value": 4.64},
      {"measurement": "pKd", "setting": "[1]; heating rate 5 °C/min, ∆Cp fitted 6.7 kcal/mol, Tsel 40 °C, read-out: Kd,Tsel", "value": 4.62},
      {"measurement": "pKd", "setting": "[1]; read-out: Kd,app,model1 (melting temperature analysis), single-site model, Eq. (1), first transition", "value": 3.84},
      {"measurement": "pKd", "setting": "[1]; read-out: Kd,app,model2 (melting temperature analysis), model 2, Eq. (4), first transition", "value": 4.99},
      {"measurement": "pKd", "setting": "[2]", "value": 4.80},
      {"measurement": "pKd", "setting": "[3]; T=36 °C, ∆Cp = 0, read-out: Kd (isothermal analysis)", "value": 4.71},
      {"measurement": "pKd", "setting": "[3]; T=38 °C, ∆Cp = 0, read-out: Kd (isothermal analysis)", "value": 4.69},
      {"measurement": "pKd", "setting": "[3]; T=40 °C, ∆Cp = 0, read-out: Kd (isothermal analysis)", "value": 4.68},
      {"measurement": "pKd", "setting": "[3]; T=42 °C, ∆Cp = 0, read-out: Kd (isothermal analysis)", "value": 4.65},
      {"measurement": "pKd", "setting": "[3]; T=44 °C, ∆Cp = 0, read-out: Kd (isothermal analysis)", "value": 4.60},
      {"measurement": "pKd", "setting": "[3]; T=46 °C, ∆Cp = 0, read-out: Kd (isothermal analysis)", "value": 4.54},
      {"measurement": "pKd", "setting": "[3]; T=48 °C, ∆Cp = 0, read-out: Kd (isothermal analysis)", "value": 4.40},
      {"measurement": "pKd", "setting": "[3]; T=50 °C, ∆Cp = 0, read-out: Kd (isothermal analysis)", "value": 4.11},
      {"measurement": "pKd", "setting": "[3]; T=52 °C, ∆Cp = 0, read-out: Kd (isothermal analysis)", "value": 3.84},
      {"measurement": "pKd", "setting": "[3]; isothermal analysis, read-out: Kd values (summary in legend)", "value": "~4.70"},
      {"measurement": "pKd", "setting": "[3]; read-out: Kd,app Model 1 (melting temperature analysis)", "value": 3.71},
      {"measurement": "pKd", "setting": "[3]; read-out: Kd,app Model 2 (melting temperature analysis)", "value": 4.81},
      {"measurement": "pKd", "setting": "[4]; Kd (isothermal analysis)", "value": "3.60 and 3.53 and 3.61 and 3.63 and 3.64 and 3.66 and 3.67"},
      {"measurement": "pKd", "setting": "[4]; read-out: Kd (isothermal analysis of nDSF)", "value": 3.67},
      {"measurement": "pKd", "setting": "[4]; read-out: Kd, melting temperature analysis model 1", "value": 3.13},
      {"measurement": "pKd", "setting": "[4]; read-out: Kd, melting temperature analysis model 2", "value": 3.93},
      {"measurement": "second transition at […] (DSC) upon ligand binding", "setting": "[5]", "value": "not"},
      {"measurement": "temperature of the first transition (DSC) upon ligand binding", "setting": "[5]; 41.5 °C in absence of ligand", "value": 43.4, "unit": "°C"}
    ]},
    {"compound": "adenosine diphosphate ribose [ADPR]", "values": [
      {"measurement": "Tm (melting temperature range of binding study)", "setting": "[6]", "value": "51–56 °C"},
      {"measurement": "Tm (melting temperature range of binding study)", "setting": "[7]", "value": "50–60 °C"}
    ]}
  ]
}
